Patent US11340219B2, “Anti-pY1235-MET immunological binding reagent” (THE UNITED STATES OF AMERICA AS REPRESENTED BY THE …, priority 2016, dated 2022)
Entries after “also recorded” stand apart in the source; their conditions may differ. Read-outs that look alike come from different tables or passages of the source.

Key:
[1] = tested on: pY1235-MET in MET-expressing cell lines (GTL-16, HT29, A549); test: pY1235-MET immunofluorescence staining of treated cancer cell lines; format: cell-based, human; details: 100 nM drug, clone 23111 staining, FIG. 1B
Protocol: MET immunofluorescence analysis. […] Cells were fixed in 10% neutral-buffered formalin (Sigma-Aldrich) for 24 h, pelleted, and then embedded in paraffin. After 5-μm sectioning, antigen retrieval with Bond Epitope Retrieval Solution 2 (at 100° C. for 10 min) and immunofluorescent staining were performed on the Bond-max Autostainer (Leica Biosystems). For antigen detection, 10 μ/mL primary antibody (anti-pY1235-MET, clone 23111) was followed by 10 μg/mL goat anti-rabbit AF488 (Life Technologies). Immunofluorescence microscopy was performed on core needle biopsies of a resected a human HPRC tumor stained with 5 μg/mL anti-full-length MET (clone Met4) followed by 10 μg/mL anti-mouse AF660 (Life Technologies). Image acquisition and analysis were performed on a wide-field fluorescent, confocal microscope (Nikon 90i, Andor Camera, NIS Elements Software).

[2] = tested on: GTL-16 tumor xenografts; test: GTL-16 xenograft tumor growth; format: in vivo, mice
Protocol: Animal models and drug administration. Athymic nude mice (nu/nu NCr; Animal Production Program, NCI-Frederick) were implanted with the human cancer cell lines U87 (glioblastoma); A549 (lung carcinoma); MDA-MB-231 (breast carcinoma); HT-29 (colon carcinoma); or with GTL-16, MKN45, or SNU5 (all gastric carcinomas, MET-amplified) as described (17). […] Sorafenib was dissolved in DMSO for in vitro studies. […] Tivantinib was administered orally in a PEG 400:20% vitamin E tocopheryl polyethylene glycol succinate solution (60:40) vehicle. Fit-for-purpose MET inhibitor studies.

[3] = molecular target: MET (Homo sapiens, UniProt P08581)
Protocol: Fit-for-purpose MET inhibitor studies. […] Extracts of core needle biopsies collected 4 h after tivantinib administration on Day 8 were analyzed for MET, pMET, and hypoxia inducible factor 1, alpha subunit (HIF-1α) (21).
MET immunoassay procedure. The full-length MET immunoassay measures the total levels of full-length MET in tumor tissue samples, irrespective of phosphorylation status. […] Wells were blocked for 2 h with 1×PBS, 0.5% mannitol, 0.2% glycine, and 0.2% BSA, and strips were assembled on 96-well plate frames, freeze-dried, and sealed in desiccated pouches (6-month stability). For the immunoassay, 100 μL each of purified rMET calibrator, controls, and tumor lysates (at protein concentrations of 10-50 μg/mL) prepared in assay buffer (1×PBS/Casein [BioFx] containing PhosSTOP, protease inhibitors and 0.1% Triton X-100 [Roche]) were added to the AF276-coated wells. The rMET assay calibrator was prepared for the dynamic range of the assay. Plates were incubated at ambient temperature (25° C.±3° C.) on an orbital shaker (600 rpm) 1 h to capture MET. After three washes with assay buffer, 100 μL/well 200 ng/mL biotin-conjugated mouse monoclonal MET antibody (clone L41G3) was added to the plates and incubated 1 h at 25° C.±3° C., followed by a second wash and the addition of 100 μL/well 200 ng/mL streptavidin poly-HRP conjugate (Pierce). After 30-min incubation with the HRP-conjugate, plates were washed 4 times and 100 μL SuperSignal ELISA Pico Chemiluminescent Substrate (pierce) was added to each well. Plates were read within 10 min using an Infinite 200 Microplate ELISA reader (Tecan, USA). MET immunoassay calibration curves were analyzed on GraphPad Prism and unknown values were calculated using 4-parameter curve fitting.
Three different pMET immunoassays were developed for the PD studies: pY1234/1235-, pY1235-, and pY1356-MET (Supplemental Material). […] The pMET assay calibrators were prepared for the dynamic range of each assay. Assay control samples were prepared by combining GTL-16, SNU5, A549, MKN45, or U87 xenograft tumor lysates to achieve low, medium, and high MET concentrations at 10 to 50 μg/mL total protein concentrations.

[4] = tested on: HIF-1α; test: HIF-1α immunoassay in SNU5 xenograft extracts; format: in vivo; details: SNU5, day 8, pazopanib 100 mg/kg daily, p<0.05
[5] = molecular target: pY1235-MET (Homo sapiens, UniProt P08581); test: BIAlite-Biosensor interaction analysis of antibody binding affinity; details: range of protein concentrations, details not shown
Protocol: To facilitate bulk production, rabbit monoclonal antibodies (clones 23111 and 7334) were converted into recombinant proteins through transient expression in HEK293 cells (8). The cDNA from rabbit hybridomas was used to clone IgG heavy and light chains in a 7.7 kB ampicillin-resistant mammalian expression vector co-expressing EB oriP, zeocin selection, and CMV promoter for transient expression in HEK293 cells. For mammalian expression plasmids, DNA was prepared using the GenElute XP Maxiprep kit (Sigma-Aldrich) and verified by agarose gel electrophoresis. Recombinant protein production provided typical yields of 100-300 mg/L in suspension cultures. Specificity of antibodies, determined by Western blot using xenograft lysate and rMET protein, was unaffected by this process. To further characterize these MET antibodies, their binding affinities were measured over a range of protein concentrations using interaction analysis performed with a BIAlite-Biosensor (Pharmacia) as previously described (9).

[6] = tested on: pY1234-MET; test: Western blot specificity analysis; format: binding; details: FIG. 7A
Protocol: (§1) Rabbits were selected for splenectomy and B-cells were subsequently fused with the rabbit cell line 240E-W2 to produce hybridomas based on high antiserum binding to phosphorylated synthetic peptide and lower or undetectable binding to the nonphosphorylated synthetic peptide of identical sequence. Specificity of the pY1235-MET antibody (clone 23111) was tested by preincubating the antibody with synthetic MET peptides phosphorylated at Y1235 (99% phosphorylated at Y1235, nonphosphorylated at Y1234, 1% other impurities) or at Y1234, or preincubating with recombinant RON (cytoplasmic domain, Millipore) (FIG. 7A). Only preincubation with the pY1235 peptide blocked binding of the antibody to the MET protein band. Specificity of clone 23111 was further confirmed by Western blotting of a GST-fusion with MET amino acids 912-1390 harboring a Y1235D-specific mutation (N-terminal GST-Y1235D-MET peptide, 76 kDa; CarnaBio USA, Inc) and of a recombinant cytoplasmic domain of RON (FIG. 7B). […] According to the manufacturer's specifications, anti-pY1234/1235-MET (clone D26) can also bind to tyrosine phosphorylated SRC proteins by Western blot.
(§2) Protein concentrations were determined by bicinchoninic acid assay (BCA assay), and cell lysate loads between 25 and 50 μg per well were run on 4% to 20% precast polyacrylamide gradient gels (Bio-Rad Laboratories) for SDS-PAGE at 100 V for up to 2 hours. Proteins separated by gel electrophoresis were transferred to a nitrocellulose membrane using the Mini-PROTEAN Tetra electrophoresis system (Bio-Rad) at 90 V for 4 hours at 2° C. to 8° C. Membranes were blocked in Odyssey blocking buffer (LI-COR) for 1 hour at 25° C.±3° C. Blots were probed first with 1 μg/mL mouse, rabbit, or goat anti-MET monoclonal antibody in Odyssey blocking buffer overnight at 2° C. to 8° C. with slow orbital shaking and then with an IR dye-labeled secondary antibody against mouse, rabbit, or goat antibody (1:5000 in Odyssey blocking buffer; LI-COR) for 1 hour at 25° C.±3° C. with orbital shaking. Blots were visualized using the Odyssey Infrared imager (LI-COR). […]

[7] = molecular target: T1, recombinant Y1235D-MET peptide (N-terminal GST-Y1235D-MET) (Homo sapiens, UniProt P08581, Y1235D); test: Western blot specificity analysis; format: binding; details: FIG. 7B
T1 construct: a GST-fusion with MET amino acids 912-1390 harboring a Y1235D-specific mutation; purchased CarnaBio USA, Inc
Protocol: as §1, §2

[8] = molecular target: T2, recombinant cytoplasmic domain of RON (Homo sapiens, UniProt Q04912); test: Western blot specificity analysis; format: binding; details: FIGS. 7A and 7B
T2 construct: preincubating with recombinant RON (cytoplasmic domain, Millipore); purchased Millipore
T2 sequence (Q04912 979-1400 limits assumed): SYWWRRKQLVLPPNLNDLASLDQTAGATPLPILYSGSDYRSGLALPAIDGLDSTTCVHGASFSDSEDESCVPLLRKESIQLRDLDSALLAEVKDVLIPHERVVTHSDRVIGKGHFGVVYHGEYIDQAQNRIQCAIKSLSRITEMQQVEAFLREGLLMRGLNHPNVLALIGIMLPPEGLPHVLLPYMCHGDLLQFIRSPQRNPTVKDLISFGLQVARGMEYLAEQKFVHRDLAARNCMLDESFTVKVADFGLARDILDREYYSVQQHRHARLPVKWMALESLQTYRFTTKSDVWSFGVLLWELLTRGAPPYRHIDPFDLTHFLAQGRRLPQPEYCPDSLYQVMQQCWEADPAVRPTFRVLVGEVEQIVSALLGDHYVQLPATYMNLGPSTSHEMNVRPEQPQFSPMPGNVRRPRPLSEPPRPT
Protocol: as §1, §2

CNC(=O)c1cc(Oc2ccc(NC(=O)Nc3ccc(Cl)c(C(F)(F)F)c3)cc2)ccn1 [sorafenib]
sensitivity of pY1235-MET plasma membrane staining to drug [1]: not

C[C@@H](Oc1cc(-c2cnn(C3CCNCC3)c2)cnc1N)c1c(Cl)ccc(F)c1Cl [PF02341066, crizotinib]
tumor growth ([2]; daily oral 25 mg/kg, by the seventh day of treatment): achieved stasis

Cc1[nH]c(/C=C2\C(=O)Nc3ccc(S(=O)(=O)Cc4c(Cl)cccc4Cl)cc32)c(C)c1C(=O)N1CCC[C@@H]1CN1CCCC1 [PHA665752]
tumor growth ([2]; 25 and 50 mg/kg/day IP, after 8-10 days of treatment): achieved tumor stasis | reduction in pY1235-MET:MET ratio ([3]; GTL-16, 25 mg/kg IP, 4 h after first dose): 62% | reduction in pY1235-MET:MET ratio ([3]; GTL-16, 50 mg/kg IP, 4 h after first dose): 80% | reduction in pY1235-MET:MET ratio ([3]; GTL-16, 4 h after the first dose (discussion summary)): 60-80% | pY1356-MET:MET ratio ([3]; GTL-16, PHA665752 after first dose, recovered to normal within 20 h): declined after the first dose

Cc1ccc(Nc2nccc(N(C)c3ccc4c(C)n(C)nc4c3)n2)cc1S(N)(=O)=O [pazopanib]
increase in HIF-1α levels [4]: 46%

B1: clone 23111: rabbit monoclonal antibody specific to pY1235-MET; VH SEQ ID NO:1, VL SEQ ID NO:2 (antibody, V domains shown)
VH: QSVEESGGRLVTPGTPLTLTCTVSGFSLSNYAMGWFRQAPGKGLEWIGIISRSGALWYANWANGRFTISKTSTTVDLKITSPTPEDTATYFCARTNYYDGYGGVDAVLTRFDFWGQGTLVTVSSG
VL: ADVVMTQTPSSVEAAVGGTVTIKCQASQSIGGGLSWYQQKAGQPPKLLIYGASTLESGVPSRFKGSGSGTEFTLTISDLECADAATYYCQSNYGSDIRDYGHTFGGGTEVVVKGDPVAPTVLIFPP
IC50 [5]: 1.2 nM | reactivity with MET epitope phosphorylated only at Y1234 [6]: no cross-reactivity; also recorded: undetectable reactivity | reactivity with Y1235D-MET (tyrosine 1235 replaced by aspartic acid) [7]: no cross-reactivity; also recorded: undetectable cross-reactivity | cross-reactivity with cytoplasmic domain of RON [8]: no cross-reactivity
